Assay results from ChEMBL document CHEMBL4152355, “Novel multi-target compounds in the quest for new chemotherapies against Alzheimer's disease: An experimental and theoretical study” (Bioorg Med Chem, 2018).
Calls of active or inactive are those of the source. No cut-off for these calls is given here.

Tests used:
Beta-secretase 1 [1] = biological target: T1, Beta-secretase 1 (Homo sapiens, UniProt P56817); assay: Inhibition of BACE 1 (unknown origin) at 50 uM using Rh-EVNLDAEFK-Quencher as substrate after 1 hr by FRET assay relative to control
T1 sequence (P56817 whole entry): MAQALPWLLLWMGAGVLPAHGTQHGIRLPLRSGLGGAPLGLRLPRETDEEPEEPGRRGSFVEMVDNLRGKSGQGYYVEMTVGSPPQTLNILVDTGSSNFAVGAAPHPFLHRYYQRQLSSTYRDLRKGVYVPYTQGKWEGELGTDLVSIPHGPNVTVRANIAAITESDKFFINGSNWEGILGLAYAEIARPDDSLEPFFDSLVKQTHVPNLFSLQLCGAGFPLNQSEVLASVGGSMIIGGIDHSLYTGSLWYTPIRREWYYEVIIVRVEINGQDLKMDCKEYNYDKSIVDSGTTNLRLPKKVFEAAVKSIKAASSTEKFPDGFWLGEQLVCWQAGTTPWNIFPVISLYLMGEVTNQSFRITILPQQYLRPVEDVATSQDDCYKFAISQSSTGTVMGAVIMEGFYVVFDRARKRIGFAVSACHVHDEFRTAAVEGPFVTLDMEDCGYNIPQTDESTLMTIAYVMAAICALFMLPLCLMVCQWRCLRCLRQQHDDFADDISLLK

Beta-secretase 1 [2] = biological target: T1, Beta-secretase 1; assay: Inhibition of BACE 1 (unknown origin) at 10 to 50 uM using Rh-EVNLDAEFK-Quencher as substrate after 1 hr by FRET assay relative to control
[3] = Inhibition of Cu2+ induced amyloid beta (1 to 40) fibril aggregation assessed as aggregation level at 100 uM measured on day 3 by UV-visible turbidity method (reference value: 100 +/- 17.24%); parameters: scale not given: the % may be the effect or the level left
HEK293 = assay: Cytotoxicity against human HEK293 cells assessed as decrease in cell viability after 48 hrs by MTT assay relative to resveratrol; assay type: cell-based; details: hek293, 48 h
[4] = biological target: Amyloid-beta precursor protein (Homo sapiens) (UniProt P05067); assay: Inhibition of self-induced amyloid beta (1 to 40) (unknown origin) fibril aggregation assessed as fluorescence emission at 100 uM measured on day 3 by thioflavin-T based assay
Amyloid-beta precursor protein (Homo sapiens), sequence (P05067 whole entry): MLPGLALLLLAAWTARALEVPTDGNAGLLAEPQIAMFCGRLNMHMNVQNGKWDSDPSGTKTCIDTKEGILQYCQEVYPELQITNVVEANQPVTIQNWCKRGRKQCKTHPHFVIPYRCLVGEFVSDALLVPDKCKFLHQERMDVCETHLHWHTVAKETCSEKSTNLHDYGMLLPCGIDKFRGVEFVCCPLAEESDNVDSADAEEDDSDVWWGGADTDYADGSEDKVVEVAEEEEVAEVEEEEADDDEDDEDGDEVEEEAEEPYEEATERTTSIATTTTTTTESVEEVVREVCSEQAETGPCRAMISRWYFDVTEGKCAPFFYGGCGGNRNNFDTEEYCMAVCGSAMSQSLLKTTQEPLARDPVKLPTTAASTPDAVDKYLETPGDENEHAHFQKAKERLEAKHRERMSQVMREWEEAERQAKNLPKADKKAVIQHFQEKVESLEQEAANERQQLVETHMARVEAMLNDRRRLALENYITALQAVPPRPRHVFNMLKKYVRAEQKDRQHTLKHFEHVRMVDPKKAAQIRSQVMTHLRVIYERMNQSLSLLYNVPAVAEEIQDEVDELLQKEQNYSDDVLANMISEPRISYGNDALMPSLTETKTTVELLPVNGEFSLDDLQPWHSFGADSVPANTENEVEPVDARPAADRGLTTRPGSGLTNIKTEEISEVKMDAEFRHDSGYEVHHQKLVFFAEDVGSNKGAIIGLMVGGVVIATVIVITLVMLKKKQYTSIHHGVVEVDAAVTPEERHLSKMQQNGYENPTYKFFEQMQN

[5] = biological target: Amyloid-beta precursor protein (Homo sapiens) (UniProt P05067); assay: Inhibition of self-induced amyloid beta (1 to 40) (unknown origin) fibril aggregation assessed as fluorescence emission at 100 uM measured on day 10 by thioflavin-T based assay; parameters: reference not given here
Beta-secretase 1 [6] = biological target: T1, Beta-secretase 1; assay: Inhibition of BACE 1 (unknown origin) using 500 nM of Rh-EVNLDAEFK-Quencher as substrate after 1 hr by FRET assay
[7] = Inhibition of Cu2+ induced amyloid beta (1 to 40) fibril aggregation assessed as fluorescence emission at 100 uM measured on day 7 by thioflavin-T based assay (reference value: 181.04 +/- 1.74)
[8] = Inhibition of Cu2+ induced amyloid beta (1 to 40) fibril aggregation assessed as fluorescence emission at 100 uM measured on day 3 by thioflavin-T based assay (reference value: 33.64 +/- 5.80)
[9] = Inhibition of Cu2+ induced amyloid beta (1 to 40) fibril aggregation assessed as aggregation level at 100 uM measured on day 10 by UV-visible turbidity method (reference value: 100 +/- 8.72%); parameters: scale not given: the % may be the effect or the level left
[10] = biological target: Amyloid-beta precursor protein (Homo sapiens) (UniProt P05067); assay: Inhibition of self-induced amyloid beta (1 to 40) (unknown origin) fibril aggregation assessed as aggregation level at 100 uM measured on day 7 by UV-visible turbidity method; parameters: scale not given: the % may be the effect or the level left
[11] = Disaggregation of Cu2+ induced amyloid beta (1 to 40) preformed fibrils assessed as aggregation level at 100 uM after 12 days by UV-visible turbidity method (reference value: 120.73 +/- 1.86%)
[12] = Disaggregation of Cu2+ induced amyloid beta (1 to 40) preformed fibrils assessed as aggregation level at 100 uM after 4 days by UV-visible turbidity method (reference value: 143.11 +/- 0.76%)
[13] = biological target: Amyloid-beta precursor protein (Homo sapiens) (UniProt P05067); assay: Disaggregation of self-induced amyloid beta (1 to 40) (unknown origin) preformed fibrils assessed as fluorescence emission at 100 uM after 12 days by thioflavin-T based assay; parameters: reference not given here
[14] = Cytotoxicity against human HEK293 cells assessed as decrease in cell viability after 48 hrs by MTT assay; assay type: cell-based; details: read-out: LD50
[15] = Metal chelating activity assessed as inhibition of Cu2+ induced amyloid beta (1 to 40) aggregation by measuring decrease in ROS production at 2 equiv after 75 mins by fluorescence assay
[16] = biological target: Amyloid-beta precursor protein (Homo sapiens) (UniProt P05067); assay: Inhibition of self-induced amyloid beta (1 to 40) (unknown origin) fibril aggregation assessed as fluorescence emission at 100 uM measured on day 7 by thioflavin-T based assay
[17] = biological target: Amyloid-beta precursor protein (Homo sapiens) (UniProt P05067); assay: Disaggregation of self-induced amyloid beta (1 to 40) (unknown origin) preformed fibrils assessed as fluorescence emission at 100 uM after 4 days by thioflavin-T based assay; parameters: reference not given here
[18] = biological target: Amyloid-beta precursor protein (Homo sapiens) (UniProt P05067); assay: Disaggregation of self-induced amyloid beta (1 to 40) (unknown origin) preformed fibrils assessed as aggregation level at 100 uM after 12 days by UV-visible turbidity method
[19] = Antioxidant activity assessed as AAPH radical scavenging activity up to 64 uM by ORAC assay; assay type: functional
[20] = biological target: Amyloid-beta precursor protein (Homo sapiens) (UniProt P05067); assay: Inhibition of self-induced amyloid beta (1 to 40) (unknown origin) fibril aggregation assessed as aggregation level at 100 uM measured on day 10 by UV-visible turbidity method; parameters: scale not given: the % may be the effect or the level left
[21] = Inhibition of Cu2+ induced amyloid beta (1 to 40) fibril aggregation assessed as fluorescence emission at 100 uM measured on day 10 by thioflavin-T based assay (reference value: 412.11 +/- 35.93)
[22] = biological target: Amyloid-beta precursor protein (Homo sapiens) (UniProt P05067); assay: Inhibition of self-induced amyloid beta (1 to 40) (unknown origin) fibril aggregation assessed as aggregation level at 100 uM measured on day 3 by UV-visible turbidity method; parameters: scale not given: the % may be the effect or the level left
[23] = Disaggregation of Cu2+ induced amyloid beta (1 to 40) preformed fibrils assessed as fluorescence emission at 100 uM after 12 days by thioflavin-T based assay (reference value: 150.21 +/- 2.32)
Beta-secretase 1 [24] = biological target: T1, Beta-secretase 1; assay: Inhibition of BACE 1 (unknown origin) using 250 nM of Rh-EVNLDAEFK-Quencher as substrate after 1 hr by FRET assay
[25] = Disaggregation of Cu2+ induced amyloid beta (1 to 40) preformed fibrils assessed as fluorescence emission at 100 uM after 4 days by thioflavin-T based assay (reference value: 178.07 +/- 17.24)
[26] = Inhibition of Cu2+ induced amyloid beta (1 to 40) fibril aggregation assessed as aggregation level at 100 uM measured on day 7 by UV-visible turbidity method (reference value: 100 +/- 0.96%); parameters: scale not given: the % may be the effect or the level left
[27] = biological target: Amyloid-beta precursor protein (Homo sapiens) (UniProt P05067); assay: Disaggregation of self-induced amyloid beta (1 to 40) (unknown origin) preformed fibrils assessed as aggregation level at 100 uM after 4 days by UV-visible turbidity method
[28] = Metal chelating activity assessed as compound-Cu2+ adduct formation at 20 uM by spectrophotometric titration analysis
[29] = Toxicity in Tetrahymena thermophila assessed as decrease in viability after 48 hrs by MTT assay; assay type: organism-based; details: Tetrahymena thermophila cells, read-out: LD50
[30] = biological target: Amyloid-beta precursor protein (Homo sapiens) (UniProt P05067); assay: Induction of amyloid beta (1 to 40) (unknown origin) amorphous aggregation at 100 uM after 10 days
[31] = Antioxidant activity assessed as AAPH radical scavenging activity at 1 to 16 uM by ORAC assay; assay type: functional
Tetrahymena thermophila = assay: Toxicity in Tetrahymena thermophila assessed as decrease in viability after 48 hrs by MTT assay relative to resveratrol; assay type: organism-based; details: in vivo
[32] = Metal chelating activity assessed as compound-Cu2+ adduct formation by spectrophotometric analysis

| Structure (SMILES) | inhibition (Beta-secretase 1 [1]) [%] | Activity [3] [%] | Flu intensity [4] | Flu intensity [5] | Flu intensity [7] | Flu intensity [8] | Activity [9] [%] | Activity [10] [%] | Activity [11] [%] | Activity [12] [%] | Flu intensity [13] | CC50 at 48 h [14] [µM] | inhibition [15] [%] | Flu intensity [16] | Flu intensity [17] | Activity [18] [%] | Flu intensity [21] | Activity [22] [%] | Flu intensity [23] | Flu intensity [25] | other results |
| --- | --- | --- | --- | --- | --- | --- | --- | --- | --- | --- | --- | --- | --- | --- | --- | --- | --- | --- | --- | --- | --- |
| C[C@@]1(c2cc(-c3cncnc3)c(F)cc2F)CCSC(N)=N1 | 100 | – | – | – | – | – | – | – | – | – | – | – | – | – | – | – | – | – | – | – | – |
| CCN(CC)CCCC(C)Nc1ccnc2cc(Cl)ccc12 (stereo not drawn) | – | – | – | – | – | – | – | – | – | – | – | – | – | – | – | – | – | – | – | – | inhibition (Beta-secretase 1 [2]): < 50% |
| O=C(NCCNc1ccnc2cc(Cl)ccc12)c1cnccn1 | 91 | 124 | 313 | 767 | 245 | 41.7 | 47.2 | 181 | 57.6 | 87.7 | 224 | 113 | 36.2 | 707 | 289 | 87.8 | 195 | 125 | 71.7 | 109 | fold change (FC) (HEK293): 1.6; IC50 (Beta-secretase 1 [6]): 9.9 µM; Activity [19]: inactive; Activity [20]: 188%; IC50 (Beta-secretase 1 [24]): 1.7 µM; Activity [26]: 135%; Activity [27]: 113%; logKa [28]: inactive |
| Oc1ccc(/C=N/CCn2ccc3ccccc32)c(O)c1 | 100 | 722 | 273 | 298 | 203 | 243 | 37.6 | 86 | 47.5 | 58.6 | 183 | 193 | 68.5 | 336 | 213 | 71.8 | 155 | 109 | 59 | 73 | LC50 at 48 h [29]: 556 µM; fold change (FC) (HEK293): 2.7; IC50 (Beta-secretase 1 [6]): 5.7 µM; Activity [30]: 6 to 33%; ORAC (Trolox equivalents) [31]: 5.22; fold change (FC) (Tetrahymena thermophila): 2.3; inhibition (Beta-secretase 1 [2]): < 50%; Activity [20]: 73%; Activity [32]: Active; IC50 (Beta-secretase 1 [24]): 4.4 µM; Activity [26]: 112%; Activity [27]: 83.2%; logKa [28]: 13.4 |
| Oc1ccc(/C=N/CCn2ccc3cccnc32)c(O)c1 | 31.6 | 673 | 310 | 344 | 233 | 227 | 44.9 | 94 | 59.7 | 85.4 | 219 | 280 | 71.9 | 368 | 226 | 85.9 | 185 | 124 | 74.3 | 106 | LC50 at 48 h [29]: 610 µM; fold change (FC) (HEK293): 3.9; Activity [30]: 6 to 33%; ORAC (Trolox equivalents) [31]: 8.13; fold change (FC) (Tetrahymena thermophila): 2.5; inhibition (Beta-secretase 1 [2]): < 50%; Activity [20]: 84.2%; Activity [32]: Active; IC50 (Beta-secretase 1 [24]): 107 µM; Activity [26]: 129%; Activity [27]: 88.4%; logKa [28]: 12.7 |
| Oc1ccc(/C=C/c2cc(O)cc(O)c2)cc1 [RESVERATROL] | – | 222 | 272 | 251 | 65 | 74.7 | 6.63 | 75.2 | 20.2 | 23.9 | 114 | 71.3 | 9 | 294 | 230 | 44.5 | 27.3 | 108 | 25.2 | 29.8 | LC50 at 48 h [29]: 240 µM; ORAC (Trolox equivalents) [31]: 1.7; Activity [26]: 35.9% |
| Cl.Oc1ccc(/C=N/CCNCCn2cnc3ccccc32)c(O)c1 | 62.5 | 328 | 165 | 282 | 106 | 110 | 23.1 | 57.5 | 38.6 | 48.5 | 160 | 184 | 93.7 | 225 | 184 | 62.6 | 95 | 65.6 | 48 | 60.4 | LC50 at 48 h [29]: 529 µM; fold change (FC) (HEK293): 2.6; IC50 (Beta-secretase 1 [6]): 18.5 µM; Activity [30]: 6 to 33%; ORAC (Trolox equivalents) [31]: 1.42; fold change (FC) (Tetrahymena thermophila): 2.2; inhibition (Beta-secretase 1 [2]): < 50%; Activity [20]: 69%; Activity [32]: Active; IC50 (Beta-secretase 1 [24]): 15.6 µM; Activity [26]: 58.5%; Activity [27]: 72.2%; logKa [28]: 14.8 |
| O=C1O[C@H]([C@@H](O)CO)C(O)=C1O | – | – | – | – | – | – | – | – | – | – | – | – | – | – | – | – | – | – | – | – | ORAC (Trolox equivalents) [31]: 62.2 |
| Cl.Nc1ncnc2c1ncn2CCNCC/N=C/c1ccc(O)cc1O | 59.2 | 299 | 247 | 367 | 172 | 100 | 32.7 | 90.9 | 30.9 | 48.9 | 226 | 336 | 97.5 | 356 | 246 | 88.4 | 135 | 98.2 | 38.4 | 60.9 | LC50 at 48 h [29]: 811 µM; fold change (FC) (HEK293): 4.7; IC50 (Beta-secretase 1 [6]): 42 µM; Activity [30]: 6 to 33%; ORAC (Trolox equivalents) [31]: 2.39; fold change (FC) (Tetrahymena thermophila): 3.4; inhibition (Beta-secretase 1 [2]): < 50%; Activity [20]: 89.8%; Activity [32]: Active; IC50 (Beta-secretase 1 [24]): 41.4 µM; Activity [26]: 94.8%; Activity [27]: 96.3%; logKa [28]: 14.8 |
| Oc1ccccc1/C=N/CCNc1ccnc2cc(Cl)ccc12 | 29.6 | 410 | 344 | 286 | 178 | 138 | 39.1 | 117 | 54.8 | 78 | 230 | 113 | 57.9 | 458 | 262 | 90 | 161 | 137 | 68.2 | 97 | fold change (FC) (HEK293): 1.6; Activity [30]: 6 to 33%; ORAC (Trolox equivalents) [31]: 2.33; Activity [20]: 94.3%; Activity [32]: Active; IC50 (Beta-secretase 1 [24]): > 160 µM; Activity [26]: 98.5%; Activity [27]: 102%; logKa [28]: 15.3 |
